SMILES strings stand for the structures.

The source of these data is patent US10906915B2, “Substituted pyrazoloazepin-4-ones and their use as phosphodiesterase inhibitors” (LEO Pharma A/S, priority 2016, dated 2021).

Chain of human PDE4D catalytic domain (Q08499 380-740 limits assumed): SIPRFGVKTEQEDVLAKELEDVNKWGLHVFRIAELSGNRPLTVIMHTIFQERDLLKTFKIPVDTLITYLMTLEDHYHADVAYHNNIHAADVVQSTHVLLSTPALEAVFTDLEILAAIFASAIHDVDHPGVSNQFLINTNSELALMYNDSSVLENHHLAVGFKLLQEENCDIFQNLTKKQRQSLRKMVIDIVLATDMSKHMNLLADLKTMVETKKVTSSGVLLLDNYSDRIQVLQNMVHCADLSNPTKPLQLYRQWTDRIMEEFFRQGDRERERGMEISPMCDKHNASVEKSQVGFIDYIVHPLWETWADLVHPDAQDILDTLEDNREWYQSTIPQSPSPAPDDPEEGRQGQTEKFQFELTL

This assay deals with human PDE4D catalytic domain (UniProt no. Q08499) (Homo sapiens (Human), UniProt Q08499). As to the kind of experiment: PDE4 assay (TR-FRET, FAM-cAMP cleavage). The assay is classed as biochemical. The conditions noted are these: read-out: PDE4 IC50 range. In outline:
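Read-out is time-resolved FRET from Tb donor to FAM-AMP captured on trivalent-metal nanoparticles added to stop the reaction. Substrate was a mix of plain and FAM-labelled cAMP, cleaved by human PDE4D catalytic domain ([…]) with titrated compound; IC50 ranges (nM) versus controls.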
The IC50 is the concentration needed to halve the response being measured. Regarding `CCc1nn(CC(C)(C)COC(=O)c2cccc(C(=O)N3CCN(C(C)=O)CC3)c2)c2c1C(=O)NCC1(CCOCC1)C2` [Example 349, [3-(3-ethyl-4-oxo-spiro[6,8-dihydro-5H-pyrazolo[4,3-c]azepine-7,4′-tetrahydropyran]-1-yl)-2,2-dimethyl-propyl] 3-(4-acetylpiperazine-1-carbonyl)benzoate], the half-maximal inhibitory concentration (IC50) is below 100 nM.
Regarding `CCc1nn(CC2(COC(=O)c3ccc(C)cc3)CC2)c2c1C(=O)NCC1(CCOCC1)C2` [Example 351, [1-[(3-ethyl-4-oxo-spiro[6,8-dihydro-5H-pyrazolo[4,3-c]azepine-7,4′-tetrahydropyran]-1-yl)methyl]cyclopropyl]methyl 4-methylbenzoate], the half-maximal inhibitory concentration (IC50) was below 100 nM.
To `CCc1nn(CC2(COC(=O)c3cccc(F)c3)CC2)c2c1C(=O)NCC1(CCOCC1)C2` [Example 352, [1-[(3-ethyl-4-oxo-spiro[6,8-dihydro-5H-pyrazolo[4,3-c]azepine-7,4′-tetrahydropyran]-1-yl)methyl]cyclopropyl]methyl 3-fluorobenzoate] belongs below 100 nM; to `CCc1nn(CC2(COC(=O)c3cccc(OC)c3)CC2)c2c1C(=O)NCC1(CCOCC1)C2` [Example 354, [1-[(3-ethyl-4-oxo-spiro[6,8-dihydro-5H-pyrazolo[4,3-c]azepine-7,4′-tetrahydropyran]-1-yl)methyl]cyclopropyl]methyl 3-methoxybenzoate], below 100 nM.
To `CCc1nn(CC2(COC(=O)c3ccc(Cl)cc3)CC2)c2c1C(=O)NCC1(CCOCC1)C2` [Example 355, [1-[(3-ethyl-4-oxo-spiro[6,8 dihydro-5H-pyrazolo[4,3-c]azepine-7,4′-letrahydropyran]-1-yl)methyl]cyclopropyl]methyl 4-chlorobenzoate] belongs below 100 nM; to `CCc1nn(CC2(COC(=O)c3ccccc3)COC2)c2c1C(=O)NCC1(CCOCC1)C2` [Example 356, [3-[(3-ethyl-4-oxo-spiro[6,8-dihydro-5H-pyrazolo[4,3-c]azepine-7,4′-tetrahydropyran]-1-yl)methyl]oxetan-3-yl]methyl benzoate], below 100 nM.
For `CCc1nn(CC2(COC(=O)c3ccc(C)cc3)COC2)c2c1C(=O)NCC1(CCOCC1)C2` [Example 357, [3-[(3-ethyl-4-oxo-spiro[6,8-dihydro-5H-pyrazolo[4,3-c]azepine-7,4′-tetrahydropyran]-1-yl)methyl]oxetan-3-yl]methyl 4-methylbenzoate] the value was below 100 nM.
Regarding `CCc1nn(CC2(COC(=O)c3cccc(F)c3)COC2)c2c1C(=O)NCC1(CCOCC1)C2` [Example 358, [3-[(3-ethyl-4-oxo-spiro[6,8-dihydro-5H-pyrazolo[4,3-c]azepine-7,4′-tetrahydropyran]-1-yl)methyl]oxetan-3-yl]methyl 3-fluorobenzoate], the concentration for half-maximal inhibition (IC50) is below 100 nM.
As for `CCc1nn(CC2(COC(=O)c3ccc(F)cc3)COC2)c2c1C(=O)NCC1(CCOCC1)C2` [Example 359, [3-[(3-ethyl-4-oxo-spiro[6,8-dihydro-5H-pyrazolo[4,3-c]azepine-7,4′-tetrahydropyran]-1-yl)methyl]oxetan-3-yl]methyl 4-fluorobenzoate], the 50% inhibitory concentration (IC50) is below 100 nM.
With `CCc1nn(CC2(COC(=O)c3cccc(OC)c3)COC2)c2c1C(=O)NCC1(CCOCC1)C2` [Example 360, [3-[(3-ethyl-4-oxo-spiro[6,8-dihydro-5H-pyrazolo[4,3-c]azepine-7,4′-tetrahydropyran]-1-yl)methyl]oxetan-3-yl]methyl 3-methoxybenzoate], the 50% inhibitory concentration (IC50) was below 100 nM.
To `CCc1nn(CC2(COC(=O)c3ccc(Cl)cc3)COC2)c2c1C(=O)NCC1(CCOCC1)C2` [Example 361, [3-[(3-ethyl-4-oxo-spiro[6,8-dihydro-5H-pyrazolo[4,3-c]azepine-7,4′-tetrahydropyran]-1-yl)methyl]oxetan-3-yl]methyl 4-chlorobenzoate] belongs below 100 nM; to `CCc1nn(C(C)CCOC(=O)c2ccccc2)c2c1C(=O)NCC1(CCOCC1)C2` (centres unmarked) [Example 362, 3-(3-ethyl-4-oxo-spiro[6,8-dihydro-5H-pyrazolo[4,3-c]azepine-7,4′-tetrahydropyran]-1-yl)butyl benzoate], below 100 nM.
For `CCc1nn(CCCCOC(=O)c2ccccc2)c2c1C(=O)NCC1(CCOCC1)C2` [Example 363, 4-(3-ethyl-4-oxo-spiro[6,8-dihydro-5H-pyrazolo[4,3-c]azepine-7,4′-tetrahydropyran]-1-yl)butyl benzoate] the value was below 100 nM; for `CCc1nn(CCCCOC(=O)c2cccc(C)c2)c2c1C(=O)NCC1(CCOCC1)C2` [Example 364, 4-(3-ethyl-4-oxo-spiro[6,8-dihydro-5H-pyrazolo[4,3-c]azepine-7,4′-tetrahydropyran]-1-yl)butyl 3-methylbenzoate], below 100 nM.
`CCc1nn(CCCCOC(=O)c2ccc(C)cc2)c2c1C(=O)NCC1(CCOCC1)C2` [Example 365, 4-(3-ethyl-4-oxo-spiro[6,8-dihydro-5H-pyrazolo[4,3-c]azepine-7,4′-tetrahydropyran]-1-yl)butyl 4-methylbenzoate]: the 50% inhibitory concentration (IC50) was below 100 nM.
For `CCc1nn(CCCCOC(=O)c2ccc(F)cc2)c2c1C(=O)NCC1(CCOCC1)C2` [Example 366, 4-(3-ethyl-4-oxo-spiro[6,8-dihydro-5H-pyrazolo[4,3-c]azepine-7,4′-tetrahydropyran]-1-yl)butyl 4-fluorobenzoate] the value was below 100 nM; for `CCc1nn(CCCCOC(=O)c2ccc(C(C)=O)cc2)c2c1C(=O)NCC1(CCOCC1)C2` [Example 368, 4-(3-ethyl-4-oxo-spiro[6,8-dihydro-5H-pyrazolo[4,3-c]azepine-7,4′-tetrahydropyran]-1-yl)butyl 4-acetylbenzoate], 100 to 500 nM.
For `CCc1nn(CCCCOC(=O)c2cccc(S(C)(=O)=O)c2)c2c1C(=O)NCC1(CCOCC1)C2` [Example 369, 4-(3-ethyl-4-oxo-spiro[6,8-dihydro-5H-pyrazolo[4,3-c]azepine-7,4′-tetrahydropyran]-1-yl)butyl 3-methylsulfonylbenzoate], the 50% inhibitory concentration (IC50) fell in the range of 100 to 500 nM.
Consider `CCc1nn(CCCCOC(=O)c2ccc(S(C)(=O)=O)cc2)c2c1C(=O)NCC1(CCOCC1)C2` [Example 370, 4-(3-ethyl-4-oxo-spiro[6,8-dihydro-5H-pyrazolo[4,3-c]azepine-7,4′-tetrahydropyran]-1-yl)butyl 4-methylsulfonylbenzoate], for which the IC50 was in the range of 100 to 500 nM.
For `CCc1nn(CCCCOC(=O)c2ccc(S(=O)(=O)CC)cc2)c2c1C(=O)NCC1(CCOCC1)C2` [Example 371, 4-(3-ethyl-4-oxo-spiro[6,8-dihydro-5H-pyrazolo[4,3-c]azepine-7,4′-tetrahydropyran]-1-yl)butyl 4-ethylsulfonylbenzoate] the value was 100 to 500 nM; for `CCc1nn(CCCCOC(=O)c2cccc(S(=O)(=O)NC)c2)c2c1C(=O)NCC1(CCOCC1)C2` [Example 372, 4-(3-ethyl-4-oxo-spiro[6,8-dihydro-5H-pyrazolo[4,3-c]azepine-7,4′-tetrahydropyran]-1-yl)butyl 3-(methylsulfamoyl)benzoate], below 100 nM.
To `CCc1nn(CCCCOC(=O)c2ccc(S(=O)(=O)NC)cc2)c2c1C(=O)NCC1(CCOCC1)C2` [Example 373, 4-(3-ethyl-4-oxo-spiro[6,8-dihydro-5H-pyrazolo[4,3-c]azepine-7,4′-tetrahydropyran]-1-yl)butyl 4-(methylsulfamoyl)benzoate] belongs 100 to 500 nM; to `CCc1nn(CCCCOC(=O)c2ccc(S(=O)(=O)N(C)C)cc2)c2c1C(=O)NCC1(CCOCC1)C2` [Example 375, 4-(3-ethyl-4-oxo-spiro[6,8-dihydro-5H-pyrazolo[4,3-c]azepine-7,4′-tetrahydropyran]-1-yl)butyl 4-(dimethylsulfamoyl)benzoate], 100 to 500 nM.
Turning to `CCc1nn(CCCCOC(=O)c2ccc(S(=O)(=O)C3CCCC3)cc2)c2c1C(=O)NCC1(CCOCC1)C2` [Example 376, 4-(3-ethyl-4-oxo-spiro[6,8-dihydro-5H-pyrazolo[4,3-c]azepine-7,4′-tetrahydropyran]-1-yl)butyl 4-cyclopentylsulfonylbenzoate], the concentration for half-maximal inhibition (IC50) is 100 to 500 nM.
For `CCc1nn(CCCCOC(=O)c2ccc(S(=O)(=O)N3CCCC3)cc2)c2c1C(=O)NCC1(CCOCC1)C2` [Example 377, 4-(3-ethyl-4-oxo-spiro[6,8-dihydro-5H-pyrazolo[4,3-c]azepme-7,4′-tetrahydropyran]-1-yl)butyl 4-pyrrolidin-1-ylsulfonylbenzoate] the value was 100 to 500 nM; for `CCc1nn(CCCCOC(=O)c2ccc(S(=O)(=O)N3CCOCC3)cc2)c2c1C(=O)NCC1(CCOCC1)C2` [Example 378, 4-(3-ethyl-4-oxo-spiro[6,8-dihydro-5H-pyrazolo[4,3-c]azepine-7,4′-telrahydropyran]-1-yl)butyl 4-morpholinosulfonylbenzoate], 100 to 500 nM; for `CCc1nn(CCCCOC(=O)c2ccc(C(=O)NC)cc2)c2c1C(=O)NCC1(CCOCC1)C2` [Example 379, 4-(3-ethyl-4-oxo-spiro[6,8-dihydro-5H-pyrazolo[4,3-c]azepine-7,4′-tetrahydropyran]-1-yl)butyl 4-(methylcarbamoyl)benzoate], 100 to 500 nM.
Consider `CCc1nn(CCCCOC(=O)c2ccc(C(=O)N(C)C)cc2)c2c1C(=O)NCC1(CCOCC1)C2` [Example 380, 4-(3-ethyl-4-oxo-spiro[6,8-dihydro-5H-pyrazolo[4,3-c]azepine-7,4′-tetrahydropyran]-1-yl)butyl 4-(dimethylcarbamoyl)benzoate], for which the IC50 is 100 to 500 nM.
To `CCc1nn(CCCCOC(=O)c2ccc(C(=O)N3CCOCC3)cc2)c2c1C(=O)NCC1(CCOCC1)C2` [Example 381, 4-(3-ethyl-4-oxo-spiro[6,8-dihydro-5H-pyrazolo[4,3-c]azepine-7,4′-tetrahydropyran]-1-yl)butyl 4-(morpholine-4-carbonyl)benzoate] belongs 100 to 500 nM.
